Assay results from US20220411362A1, “DITERPENOID COMPOUNDS THAT ACT ON PROTEIN KINASE C (PKC)” (K-Gen, Inc., priority 2019, published 2022).

Key:
[1] = test system: KP-4 (Pancreatic) cell line; test: Proliferation of KP-4; format: cell-based; details: Homo sapiens, KP-4, read-out: IC50 in μM KP-4 (Pancreatic)
Experimental: (§1) The diterpenoid compounds were tested in A549, a non-small cell lung cancer cell line harboring a K-Ras activating mutation. Briefly, A549 cells at a density of 1,000 cells/well were seeded in 96-well plates and incubated at 37° C. for 24 hours. A series of different concentrations of compound stocks (500×) were prepared by 3-fold serial dilution in DMSO. These compounds were further diluted in culture media and then added to cells so that the final DMSO concentration was not exceeding 0.25%. After 96 hours of incubation, 50 μL of CellTiter Glo reagent (Promega) was added to each well and luminescence was measured after 10 minutes using EnVision (PerkinElmer). Luminescence from cells treated with DMSO alone was set as Max and % of inhibition was calculated as follows: Inhibition %=(Max−Sample value)/Max×100. Data was analyzed using XL-fit software (ID Business Solutions Ltd.) and IC50, relative IC50, and % of top inhibition was calculated. Some of the compounds in this disclosure were very potent in blocking proliferation of A549 lung cancer cells at low nM range. In addition, potency of inhibiting A549 proliferation correlated well with its binding affinity to PKCs for this series of compounds. In other words, higher affinity binders had stronger inhibitory effects on A549 proliferation. This further support the notion that activation, rather than inhibition, of certain PKC isoforms is required to block proliferation of cancer cells, some of which may harbor K-Ras mutations. This is in sharp contrast to previous literature and common belief that inhibition of PKC is necessary to block cancer cell growth (Kang, 2014, New Journal of Science, 2014:1-36). Data presented here is in agreement with recent findings that many loss-of-function but not gain-of-function mutations of PKC isoforms have been identified in many human cancers (Antal et al., 2015, Cell, 160:489-502).
(§2) The compounds in this disclosure were tested for their potency in blocking proliferation of a few other cancer cells lines, including K-Ras mutant pancreatic cell lines Panc2.13 and KP-4, leukemia cell line HL-60, and lymphoma cell lines Namalwa and Mino. Similar procedures as in Example 67 were followed. Initial cell numbers seeded in 96-well plates were different for different cell lines: 3000 cells/well for Panc2.13; 800-1000 cells/well for KP-4; 5000 cells/well for HL-60; 5000-10000 cells/well for Namalwa and Mino. A ratio ratio of (IC50 of K01)/(IC50 of compound) (data in parenthesis in Table 5) was used to normalize the compound potency from different assay batches to a common comparator […].

[2] = test system: Panc2.13 (Pancreatic) cell line; test: Proliferation of Panc2.13; format: cell-based; details: for ratio of (IC50 of K01)/(IC50 of compound), Panc2.13: value in parenthesis; for IC50: read-out: IC50 in μM Panc2.13 (Pancreatic)
Experimental: as §1, §2

[3] = test system: Namalwa (Lymphoma) cell line; test: Proliferation of Namalwa; format: cell-based; details: for ratio of (IC50 of K01)/(IC50 of compound), Namalwa: value in parenthesis; for IC50: read-out: IC50 in μM Namalwa (Lymphoma)
Experimental: as §1, §2

C1b domain of human PKCδ = target: T1, C1b domain of human PKCδ (Homo sapiens, UniProt Q05655); test: Competitive 3H-PDBu binding to C1b domain of PKCδ; details: Ki PKCδ, 3H-PDBu competition
T1 construct: Genes encoding C1b domains of human PKCα, δ, ε, θ, and PKD1 (PKCμ) were synthesized; made in house; host or cells: E. coli BL21(DE3)
T1 sequence (Q05655 230-280 limits assumed): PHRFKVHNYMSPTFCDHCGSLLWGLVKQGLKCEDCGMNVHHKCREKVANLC
Outline: (§3)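 Ki derived by Cheng-Prusoff from IC50, with each protein batch's measured ^3H-PDBu Kd. Displacement of ^3H-PDBu from E. coli-produced GST-fused C1b domains or full-length human PKC was run 10 min at 37°C plus 20 min on ice, with filter capture and scintillation counting.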

C1b domain of human PKCε = target: T2, C1b domain of human PKCε (Homo sapiens, UniProt Q02156); test: Competitive 3H-PDBu binding to C1b domain of PKCε
T2 construct: Genes encoding C1b domains of human PKCα, δ, ε, θ, and PKD1 (PKCμ) were synthesized; made in house; host or cells: E. coli BL21(DE3)
T2 sequence (Q02156 242-292 limits assumed): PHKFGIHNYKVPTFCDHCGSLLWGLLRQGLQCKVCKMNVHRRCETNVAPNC
Experimental: (§4) Compounds described in this disclosure were tested for binding affinity to C1b domain of PKC isoforms. Compound binding affinity to C1b domain of PKC isoforms was derived from competitive binding assay using radioactive tracer ^3H-PDBu and recombinant GST-C1b or full-length of human PKC proteins based on modified procedures from Methods in Molecular Biology, vol.
(§5) Genes encoding C1b domains of human PKCα, δ, ε, θ, and PKD1 (PKCμ) were synthesized and inserted into pGEX-2TK or pGEX-4T1 vectors for expression and production of GST-C1b proteins in E. coli BL21(DE3) via IPTG induction. The target proteins were purified by glutathione sepharose 4B and followed by ion exchange chromatography if needed to achieve purity >70%. Aliquots of the purified proteins were stored at −80 degree for binding assay (storage buffer: 20 mM Tris pH 8.0, 200 mM NaCl, 10% glycerol, 1 mM DTT).
(§6) The plate was incubated at 37° C. on a shaker at 300 rpm for 10 minutes and then put on ice for 20 minutes. […] The bottom of the filter plate was sealed and 50 μL of MicroScint-20 (PerkinElmer) cocktail was added to each well. ^3H-PDBu trapped in each well was counted using PerkinElmer MicroBeta2 Reader. Data were analyzed using GraphPad Prism5 with the model “log(inhibitor) vs. response-variable slope” to fit the IC50, and then IC50 was transformed to Ki using Cheng-Prusoff equation: Ki=IC50/(1+added radio ligand/Kd). Kd is the binding affinity of each protein preparation to ^3H-PDBu, determined experimentally.

[4] = test system: HL-60 (Leukemia) cell line; test: Proliferation of HL-60; format: cell-based; details: for ratio of (IC50 of K01)/(IC50 of compound), HL-60: value in parenthesis; for IC50: Homo sapiens, HL-60, read-out: IC50 in μM HL-60 (Leukemia)
Experimental: as §1, §2

C1b domain of human PKCθ = target: T3, C1b domain of human PKCθ (Homo sapiens, UniProt Q04759); test: Competitive 3H-PDBu binding to C1b domain of PKCθ
T3 construct: Genes encoding C1b domains of human PKCα, δ, ε, θ, and PKD1 (PKCμ) were synthesized; made in house; host or cells: E. coli BL21(DE3)
T3 sequence (Q04759 231-281 limits assumed): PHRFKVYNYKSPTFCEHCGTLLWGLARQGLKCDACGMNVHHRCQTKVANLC
Experimental: as §4, §5, §6

[5] = target: T4, C1b domain of human PKD1 (PKCμ) (Homo sapiens, UniProt Q15139); test: biochemical; format: binding
T4 construct: Genes encoding C1b domains of human PKCα, δ, ε, θ, and PKD1 (PKCμ) were synthesized; made in house; host or cells: E. coli BL21(DE3)
T4 sequence (Q15139 270-320 limits assumed): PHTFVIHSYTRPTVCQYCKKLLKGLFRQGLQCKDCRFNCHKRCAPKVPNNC
Outline: as §3

C1b domain of human PKCα = target: T5, C1b domain of human PKCα (Homo sapiens, UniProt P17252); test: biochemical; format: binding; details: 3H-PDBu competition; for Ki: Ki PKCα
T5 construct: Genes encoding C1b domains of human PKCα, δ, ε, θ, and PKD1 (PKCμ) were synthesized; made in house; host or cells: E. coli BL21(DE3)
Outline: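 Competitive binding against 3H-PDBu tracer used recombinant GST-C1b fusion protein expressed in E. coli. Incubation ran 10 min at 37°C with shaking, then 20 min on ice, followed by filtration and scintillation counting of trapped 3H-PDBu. Affinity was derived using each protein preparation's experimentally determined Kd for 3H-PDBu.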

[6] = test system: A549 non-small cell lung cancer cell line; test: Proliferation of A549 (CellTiter Glo); format: cell-based; details: Homo sapiens, A549, 96 h, read-out: IC50 μM (A549 Cell Line)
Outline: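 Luminescent CellTiter Glo read-out after 96 h compound exposure of A549 cells plated at 1,000/well and rested 24 h at 37° C; DMSO kept ≤0.25%, dilutions 3-fold. Inhibition taken relative to DMSO-treated wells; IC50, relative IC50 and top inhibition derived by curve fitting.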

[7] = test system: Mino (Lymphoma) cell line; test: Proliferation of Mino; format: cell-based; details: for IC50: Homo sapiens, MINO, read-out: IC50 in μM Mino (Lymphoma); for ratio of (IC50 of K01)/(IC50 of compound), Mino: value in parenthesis
Experimental: as §1, §2

Row | Structure (SMILES) | IC50 [1] [µM] | ratio of (IC50 of K01)/(IC50 of compound), Panc2.13 [2] | IC50 [2] [µM] | ratio of (IC50 of K01)/(IC50 of compound), Namalwa [3] | IC50 [3] [µM] | Ki (C1b domain of human PKCδ) [nM] | Ki (C1b domain of human PKCε) [nM] | ratio of (IC50 of K01)/(IC50 of compound), HL-60 [4] | IC50 [4] [µM] | Ki (C1b domain of human PKCθ) [nM] | Ki [5] [nM] | Ki (C1b domain of human PKCα) [nM] | IC50 [6] [µM] | IC50 [7] [µM] | ratio of (IC50 of K01)/(IC50 of compound), Mino [7] | Ki PKCα (C1b domain of human PKCα)
1 | CC1=C[C@H]2[C@@]3(O)[C@H](C)C[C@]4(OC(=O)[C@@H](N)CCc5ccccc5)[C@H]([C@@H]3C=C(CO)C[C@]2(O)C1=O)C4(C)C [Compound K101-C1318] | 0.1 to 0.2 | 4.28 | 0.2 to 0.6 | 0.93 | 0.06 to 0.1 | 5 to 10 | 30 to 60 | 3.21 | 0.1 to 0.2 | 1 to 30 | < 5 | 100 to 200 | 0.1 to 0.2 | 0.01 to 0.03 | 3.18 | 
2 | CC1=C[C@H]2[C@@]3(O)[C@H](C)C[C@]4(OC(=O)[C@@H](N)Cc5ccc(C(F)(F)F)cc5)[C@H]([C@@H]3C=C(CO)C[C@]2(O)C1=O)C4(C)C [Compound K101-C1342] | 0.06 to 0.1 | 6.79 | 0.1 to 0.2 | 1.68 | 0.03 to 0.06 | 5 to 10 |  | 6.43 | 0.03 to 0.06 |  | < 5 | 100 to 200 | 0.06 to 0.1 | 0.01 to 0.03 | 6.2 | 
3 | CC1=C[C@H]2[C@@]3(O)[C@H](C)C[C@]4(OC(=O)[C@@H](N)C(C)(C)c5ccc(C(F)(F)F)cc5)[C@H]([C@@H]3C=C(CO)C[C@]2(O)C1=O)C4(C)C [Compound K101-C134902] |  |  |  | 3.5 | 0.01 to 0.03 | < 5 | 1 to 30 | 12 | 0.01 to 0.03 | 5 to 10 | < 5 | 30 to 60 | 0.03 to 0.06 | 0.001 to 0.01 | 15.7 | 
4 | CC1=C[C@H]2[C@@]3(O)[C@H](C)C[C@]4(OC(=O)CCCc5ccccc5)[C@H]([C@@H]3C=C(CO)C[C@]2(O)C1=O)C4(C)C [Compound K101-C1324] |  |  |  | 8.63 | 0.001 to 0.01 | < 5 | < 5 | 32.7 | 0.01 to 0.03 | < 5 | < 5 | 100 to 200 | 0.01 to 0.03 | 0.001 to 0.01 | 37.5 | 
5 | CC1=C[C@H]2[C@@]3(O)[C@H](C)C[C@]4(OC(=O)[C@H](N)C(C)(C)c5ccc(C(F)(F)F)cc5)[C@H]([C@@H]3C=C(CO)C[C@]2(O)C1=O)C4(C)C [Compound K101-C134901] |  |  |  | 0.49 | 0.1 to 0.2 | 1 to 30 | 1 to 30 | 2.75 | 0.1 to 0.2 | 1 to 30 | 5 to 10 | 200 to 400 | 0.2 to 0.6 | 0.01 to 0.03 | 3.88 | 
6 | CC/C=C\C/C=C\C/C=C\C/C=C\C/C=C\C/C=C\CCC(=O)O[C@@]12C[C@@H](C)[C@@]3(O)[C@@H](C=C(CO)C[C@]4(O)C(=O)C(C)=C[C@@H]34)[C@@H]1C2(C)C [Compound K101-C1333] | 0.001 to 0.01 | 157 | 0.001 to 0.01 | 20.9 | 0.001 to 0.01 | < 5 | 1 to 30 | 80 | 0.001 to 0.01 | < 5 | < 5 |  | 0.001 to 0.01 | < 0.001 | 82.5 | E (E=>60 nM and ≤10 nM)
